From patent US12351556B2, “Pyridin-2(1H)one derivatives, their preparation and their use for the treatment of pain” (INSTITUT NATIONAL DE LA SANTE ET DE LA RECHERCHE MEDICALE …, priority 2019, dated 2025)
Where two headings read alike, the source gives them in different places.

How the values were obtained:
Assay type in all cases: biochemical
p38α MAPK = p38α MAPK (Homo sapiens (Human), UniProt Q16539); experiment: p38 alpha IC50
Experimental: (§1) Studies were undertaken to identify the possible biological target(s) of compound 69. The activation in neurons of PK such as PKCγ, ERK or p38 MAPK can contribute to pain hypersensitivity. Therefore, it was decided to screen compound 69 toward a panel of 50 PKs that provide a representative sampling of the human kinome (FIG. 3, Table 3) (Biochem. J. 2007, 408, 297-315). In this panel, p38α MAPK was identified as the privileged target, with 19% of kinase residual activity at 10 μM compound concentration.
The selectivity of compound 69 was evaluated at 1 μM toward another panel containing all four p38 MAPK isoforms, ERK1, ERK2 as well as other protein kinases close to p38α MAPK in the kinome phylogenetic tree (FIG. 4, Table 4). […] Its IC50 toward p38α MAPK was determined, showing a value in the micromolar range (IC50=3.0±0.1 μM).

TrkA = TrkA (Homo sapiens (Human), UniProt P04629); experiment: ICKP protein kinase panel screening; settings: duplicate assays, read-out: mean % residual activity
Experimental: (§2) FIG. 3 illustrates the human kinome. Compound 69 was evaluated at the International Center For Kinase Profiling (ICKP, Dundee, Scotland) toward a panel of 50 protein kinases that provide a representative sampling of the human kinome. The results were expressed as the mean percentage of residual activity at 10 μM concentration (duplicate assays). Small disks: ≥65%, larger disk: 19%. The black square indicates the kinome region containing protein kinases evaluated in a second screening (FIG. 4, Table 4). The tree was generated using the Kinome Render software, and the illustration reproduced courtesy of Cell Signaling Technology, Inc. (www.cellsignal.com) Chartier et al PeerJ 2013, 1:e126.
(§3) Results are expressed as the mean percentage of residual activity at 10 μM (Table 3) or 1 μM (Table 4). They are illustrated on FIGS. 3 and 4.
as §1

PKCa = PKCa (Homo sapiens (Human), UniProt P17252); experiment: ICKP protein kinase panel screening; settings: duplicate assays, read-out: mean % residual activity
Experimental: as §2, §3, §1

TBK1 = TBK1 (Homo sapiens (Human), UniProt Q9UHD2); experiment: ICKP protein kinase panel screening; settings: duplicate assays, read-out: mean % residual activity
Experimental: as §2, §3, §1

LKB1 = LKB1 (Homo sapiens (Human), UniProt Q15831); experiment: ICKP protein kinase panel screening; settings: duplicate assays, read-out: mean % residual activity
Experimental: as §2, §3, §1

Aurora B = Aurora B (Homo sapiens (Human), UniProt Q96GD4); experiment: ICKP protein kinase panel screening; settings: duplicate assays, read-out: mean % residual activity
Experimental: as §2, §3, §1

PAK4 = PAK4 (Homo sapiens (Human), UniProt O96013); experiment: ICKP protein kinase panel screening; settings: duplicate assays, read-out: mean % residual activity
Experimental: as §2, §3, §1

CK1δ = CK1δ (Homo sapiens (Human), UniProt P48730); experiment: ICKP protein kinase panel screening; settings: duplicate assays, read-out: mean % residual activity
Experimental: as §2, §3, §1

PDK1 = PDK1 (Homo sapiens (Human), UniProt O15530); experiment: ICKP protein kinase panel screening; settings: duplicate assays, read-out: mean % residual activity
Experimental: as §2, §3, §1

CHK2 = CHK2 (Homo sapiens (Human), UniProt O96017); experiment: ICKP protein kinase panel screening; settings: duplicate assays, read-out: mean % residual activity
Experimental: as §2, §3, §1

VEG-FR = VEG-FR (Homo sapiens (Human), UniProt P17948); experiment: ICKP protein kinase panel screening; settings: duplicate assays, read-out: mean % residual activity
Experimental: as §2, §3, §1

BTK = BTK (Homo sapiens (Human), UniProt Q06187); experiment: ICKP protein kinase panel screening; settings: duplicate assays, read-out: mean % residual activity
Experimental: as §2, §3, §1

CAMKKb = CAMKKb (Homo sapiens (Human), UniProt Q96RR4); experiment: ICKP protein kinase panel screening; settings: duplicate assays, read-out: mean % residual activity
Sequence of CAMKKb (Q96RR4 whole entry): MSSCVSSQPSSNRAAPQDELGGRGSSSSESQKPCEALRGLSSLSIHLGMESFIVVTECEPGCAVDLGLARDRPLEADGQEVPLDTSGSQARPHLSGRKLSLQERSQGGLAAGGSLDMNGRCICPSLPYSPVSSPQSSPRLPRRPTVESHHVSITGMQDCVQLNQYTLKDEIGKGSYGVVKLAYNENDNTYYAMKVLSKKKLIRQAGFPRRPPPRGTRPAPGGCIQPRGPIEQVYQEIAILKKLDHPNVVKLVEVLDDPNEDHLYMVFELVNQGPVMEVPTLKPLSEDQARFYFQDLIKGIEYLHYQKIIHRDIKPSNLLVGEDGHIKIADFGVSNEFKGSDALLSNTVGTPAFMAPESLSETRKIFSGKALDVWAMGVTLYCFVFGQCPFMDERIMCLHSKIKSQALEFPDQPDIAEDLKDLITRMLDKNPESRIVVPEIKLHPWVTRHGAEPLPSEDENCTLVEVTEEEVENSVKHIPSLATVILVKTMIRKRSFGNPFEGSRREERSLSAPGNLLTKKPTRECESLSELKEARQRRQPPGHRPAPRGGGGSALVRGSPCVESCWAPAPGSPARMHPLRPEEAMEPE
Experimental: as §2, §3, §1

IGF-1R = IGF-1R (Homo sapiens (Human), UniProt P08069); experiment: ICKP protein kinase panel screening; settings: duplicate assays, read-out: mean % residual activity
Sequence of IGF-1R (P08069 31-1367): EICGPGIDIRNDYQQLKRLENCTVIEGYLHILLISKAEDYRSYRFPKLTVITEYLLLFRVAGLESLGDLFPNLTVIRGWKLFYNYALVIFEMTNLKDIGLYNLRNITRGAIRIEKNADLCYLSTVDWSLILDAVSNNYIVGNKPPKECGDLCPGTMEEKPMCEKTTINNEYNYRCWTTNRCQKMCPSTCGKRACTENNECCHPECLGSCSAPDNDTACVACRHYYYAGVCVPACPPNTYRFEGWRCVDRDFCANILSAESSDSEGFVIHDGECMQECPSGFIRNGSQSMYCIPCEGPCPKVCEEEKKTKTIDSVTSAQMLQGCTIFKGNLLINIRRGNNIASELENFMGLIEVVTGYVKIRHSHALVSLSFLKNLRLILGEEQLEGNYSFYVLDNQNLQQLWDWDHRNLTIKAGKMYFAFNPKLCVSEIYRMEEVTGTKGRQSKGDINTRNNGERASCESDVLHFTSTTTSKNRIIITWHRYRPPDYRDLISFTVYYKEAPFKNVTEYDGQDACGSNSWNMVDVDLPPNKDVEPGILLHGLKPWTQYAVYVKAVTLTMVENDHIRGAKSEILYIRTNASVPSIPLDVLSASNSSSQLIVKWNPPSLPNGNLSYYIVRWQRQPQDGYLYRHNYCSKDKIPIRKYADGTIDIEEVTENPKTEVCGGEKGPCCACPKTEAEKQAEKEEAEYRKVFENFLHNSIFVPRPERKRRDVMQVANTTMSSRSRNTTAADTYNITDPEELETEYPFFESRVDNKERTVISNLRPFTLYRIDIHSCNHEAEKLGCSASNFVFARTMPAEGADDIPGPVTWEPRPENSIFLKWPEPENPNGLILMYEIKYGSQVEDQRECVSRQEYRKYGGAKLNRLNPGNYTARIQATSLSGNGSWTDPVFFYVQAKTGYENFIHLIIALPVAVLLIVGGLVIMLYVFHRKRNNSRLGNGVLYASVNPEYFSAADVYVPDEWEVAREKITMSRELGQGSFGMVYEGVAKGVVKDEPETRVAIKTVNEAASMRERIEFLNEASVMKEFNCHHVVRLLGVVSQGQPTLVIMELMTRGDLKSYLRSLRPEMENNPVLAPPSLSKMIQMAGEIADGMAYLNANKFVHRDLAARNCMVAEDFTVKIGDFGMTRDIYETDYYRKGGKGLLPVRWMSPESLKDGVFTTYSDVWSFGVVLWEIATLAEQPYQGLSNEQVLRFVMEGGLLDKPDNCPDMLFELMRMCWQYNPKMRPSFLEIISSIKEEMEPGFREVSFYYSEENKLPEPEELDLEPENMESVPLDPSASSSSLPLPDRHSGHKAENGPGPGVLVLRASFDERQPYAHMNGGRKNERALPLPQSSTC
Experimental: as §2, §3, §1

TTK = TTK (Homo sapiens (Human), UniProt P33981); experiment: ICKP protein kinase panel screening; settings: duplicate assays, read-out: mean % residual activity
Experimental: as §2, §3, §1

CAMK1 = CAMK1 (Homo sapiens (Human), UniProt Q14012); experiment: ICKP protein kinase panel screening; settings: duplicate assays, read-out: mean % residual activity
Experimental: as §2, §3, §1

MKK1 = MKK1 (Homo sapiens (Human), UniProt Q02750); experiment: ICKP protein kinase panel screening; settings: duplicate assays, read-out: mean % residual activity
Experimental: as §2, §3, §1

RIPK2 = RIPK2 (Homo sapiens (Human), UniProt O43353); experiment: ICKP protein kinase panel screening; settings: duplicate assays, read-out: mean % residual activity
Experimental: as §2, §3, §1

Lck = Lck (Homo sapiens (Human), UniProt P06239); experiment: ICKP protein kinase panel screening; settings: duplicate assays, read-out: mean % residual activity
Experimental: as §2, §3, §1

PLK1 = PLK1 (Homo sapiens (Human), UniProt P53350); experiment: ICKP protein kinase panel screening; settings: duplicate assays, read-out: mean % residual activity
Experimental: as §2, §3, §1

S6K1 = S6K1 (Homo sapiens (Human), UniProt P23443); experiment: ICKP protein kinase panel screening; settings: duplicate assays, read-out: mean % residual activity
Sequence of S6K1 (P23443 whole entry): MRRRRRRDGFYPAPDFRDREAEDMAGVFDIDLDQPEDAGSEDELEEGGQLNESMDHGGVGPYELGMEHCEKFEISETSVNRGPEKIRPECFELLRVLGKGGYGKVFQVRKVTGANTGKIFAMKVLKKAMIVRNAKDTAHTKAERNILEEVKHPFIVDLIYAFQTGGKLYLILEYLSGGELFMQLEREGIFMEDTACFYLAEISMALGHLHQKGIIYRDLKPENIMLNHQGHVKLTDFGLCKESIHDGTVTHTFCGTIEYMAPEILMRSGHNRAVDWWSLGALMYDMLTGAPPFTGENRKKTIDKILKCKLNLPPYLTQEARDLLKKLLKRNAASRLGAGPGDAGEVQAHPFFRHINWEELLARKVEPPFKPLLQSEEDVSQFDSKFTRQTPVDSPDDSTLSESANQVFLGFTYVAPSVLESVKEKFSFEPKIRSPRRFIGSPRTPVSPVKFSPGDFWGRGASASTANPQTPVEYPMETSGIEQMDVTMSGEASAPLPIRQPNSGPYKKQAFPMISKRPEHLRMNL
Experimental: as §2, §3, §1

Src = Src (Homo sapiens (Human), UniProt P12931); experiment: ICKP protein kinase panel screening; settings: duplicate assays, read-out: mean % residual activity
Experimental: as §2, §3, §1

IRAK4 = IRAK4 (Homo sapiens (Human), UniProt Q9NWZ3); experiment: ICKP protein kinase panel screening; settings: duplicate assays, read-out: mean % residual activity
Experimental: as §2, §3, §1

PRK2 = PRK2 (Homo sapiens (Human), UniProt Q16513); experiment: ICKP protein kinase panel screening; settings: duplicate assays, read-out: mean % residual activity
Sequence of PRK2 (Q16513 whole entry): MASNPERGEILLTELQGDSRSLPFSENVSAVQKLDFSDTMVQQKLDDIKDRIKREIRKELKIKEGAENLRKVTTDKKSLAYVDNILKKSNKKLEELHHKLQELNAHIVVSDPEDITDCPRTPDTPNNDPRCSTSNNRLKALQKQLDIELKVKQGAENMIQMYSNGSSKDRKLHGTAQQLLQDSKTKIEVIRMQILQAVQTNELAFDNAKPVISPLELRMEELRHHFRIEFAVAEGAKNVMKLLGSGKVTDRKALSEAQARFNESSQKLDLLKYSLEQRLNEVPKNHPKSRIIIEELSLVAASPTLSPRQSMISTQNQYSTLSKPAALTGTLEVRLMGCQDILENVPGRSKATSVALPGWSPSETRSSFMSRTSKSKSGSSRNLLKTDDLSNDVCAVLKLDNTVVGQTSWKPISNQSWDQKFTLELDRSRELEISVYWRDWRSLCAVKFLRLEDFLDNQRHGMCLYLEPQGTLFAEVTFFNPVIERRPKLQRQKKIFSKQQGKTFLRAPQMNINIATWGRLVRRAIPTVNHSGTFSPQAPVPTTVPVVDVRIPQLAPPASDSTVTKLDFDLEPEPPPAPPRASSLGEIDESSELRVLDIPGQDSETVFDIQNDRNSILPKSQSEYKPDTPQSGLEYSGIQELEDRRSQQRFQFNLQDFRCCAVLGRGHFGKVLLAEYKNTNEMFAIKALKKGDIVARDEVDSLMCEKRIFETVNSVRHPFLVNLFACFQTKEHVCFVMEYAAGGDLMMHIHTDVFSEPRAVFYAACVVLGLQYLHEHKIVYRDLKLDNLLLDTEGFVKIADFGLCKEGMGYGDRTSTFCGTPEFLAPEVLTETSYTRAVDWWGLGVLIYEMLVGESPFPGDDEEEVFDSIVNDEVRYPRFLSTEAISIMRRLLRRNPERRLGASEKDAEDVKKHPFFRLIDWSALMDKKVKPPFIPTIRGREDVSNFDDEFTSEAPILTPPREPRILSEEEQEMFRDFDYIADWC
Experimental: as §2, §3, §1

GSK3b = GSK3b (Homo sapiens (Human), UniProt P49841); experiment: ICKP protein kinase panel screening; settings: duplicate assays, read-out: mean % residual activity
Experimental: as §2, §3, §1

SYK = SYK (Homo sapiens (Human), UniProt P43405); experiment: ICKP protein kinase panel screening; settings: duplicate assays, read-out: mean % residual activity
Experimental: as §2, §3, §1

EF2K = EF2K (Homo sapiens (Human), UniProt O00418); experiment: ICKP protein kinase panel screening; settings: duplicate assays, read-out: mean % residual activity
Experimental: as §2, §3, §1

PKD1 = PKD1 (Homo sapiens (Human), UniProt Q15139); experiment: ICKP protein kinase panel screening; settings: duplicate assays, read-out: mean % residual activity
Experimental: as §2, §3, §1

SGK1 = SGK1 (Homo sapiens (Human), UniProt O00141); experiment: ICKP protein kinase panel screening; settings: duplicate assays, read-out: mean % residual activity
Experimental: as §2, §3, §1

MARK3 = MARK3 (Homo sapiens (Human), UniProt P27448); experiment: ICKP protein kinase panel screening; settings: duplicate assays, read-out: mean % residual activity
Experimental: as §2, §3, §1

HER4 = HER4 (Homo sapiens (Human), UniProt Q15303); experiment: ICKP protein kinase panel screening; settings: duplicate assays, read-out: mean % residual activity
Sequence of HER4 (Q15303 26-1308): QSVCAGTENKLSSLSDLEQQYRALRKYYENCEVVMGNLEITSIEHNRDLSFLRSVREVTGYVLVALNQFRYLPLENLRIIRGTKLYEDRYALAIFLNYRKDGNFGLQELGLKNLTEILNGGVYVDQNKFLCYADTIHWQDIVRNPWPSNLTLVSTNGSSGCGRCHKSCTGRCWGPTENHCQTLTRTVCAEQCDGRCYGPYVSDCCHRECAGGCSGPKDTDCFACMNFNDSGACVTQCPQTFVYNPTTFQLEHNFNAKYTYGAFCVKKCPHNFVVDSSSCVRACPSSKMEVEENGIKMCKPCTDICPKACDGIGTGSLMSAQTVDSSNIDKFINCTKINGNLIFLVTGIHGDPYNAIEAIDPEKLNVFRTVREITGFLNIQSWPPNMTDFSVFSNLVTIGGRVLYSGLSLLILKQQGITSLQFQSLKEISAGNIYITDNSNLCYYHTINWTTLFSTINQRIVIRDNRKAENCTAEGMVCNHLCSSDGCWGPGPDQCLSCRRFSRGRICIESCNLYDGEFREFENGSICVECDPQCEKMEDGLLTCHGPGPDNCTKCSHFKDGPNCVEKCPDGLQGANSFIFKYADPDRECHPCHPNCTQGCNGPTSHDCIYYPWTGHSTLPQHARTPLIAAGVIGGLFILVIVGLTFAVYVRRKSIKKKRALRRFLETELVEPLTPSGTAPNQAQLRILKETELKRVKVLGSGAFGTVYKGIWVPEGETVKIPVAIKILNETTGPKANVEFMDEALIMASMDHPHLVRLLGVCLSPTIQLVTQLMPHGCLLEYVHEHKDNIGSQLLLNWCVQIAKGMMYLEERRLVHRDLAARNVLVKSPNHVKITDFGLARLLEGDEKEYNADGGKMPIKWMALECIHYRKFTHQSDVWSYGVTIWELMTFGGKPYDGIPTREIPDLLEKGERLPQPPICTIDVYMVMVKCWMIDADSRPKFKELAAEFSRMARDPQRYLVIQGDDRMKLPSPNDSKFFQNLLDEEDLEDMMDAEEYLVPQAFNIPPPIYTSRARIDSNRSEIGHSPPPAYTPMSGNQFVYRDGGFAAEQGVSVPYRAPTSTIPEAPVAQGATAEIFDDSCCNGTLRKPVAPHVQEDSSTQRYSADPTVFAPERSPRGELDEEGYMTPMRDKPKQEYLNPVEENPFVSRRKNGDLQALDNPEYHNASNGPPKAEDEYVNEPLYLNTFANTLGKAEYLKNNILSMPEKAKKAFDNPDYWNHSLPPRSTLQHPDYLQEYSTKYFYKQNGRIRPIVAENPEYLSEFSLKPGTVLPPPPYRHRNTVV
Experimental: as §2, §3, §1

EPH-A2 = EPH-A2 (Homo sapiens (Human), UniProt P29317); experiment: ICKP protein kinase panel screening; settings: duplicate assays, read-out: mean % residual activity
Experimental: as §2, §3, §1

Sequence of p38α MAPK (Q16539 whole entry): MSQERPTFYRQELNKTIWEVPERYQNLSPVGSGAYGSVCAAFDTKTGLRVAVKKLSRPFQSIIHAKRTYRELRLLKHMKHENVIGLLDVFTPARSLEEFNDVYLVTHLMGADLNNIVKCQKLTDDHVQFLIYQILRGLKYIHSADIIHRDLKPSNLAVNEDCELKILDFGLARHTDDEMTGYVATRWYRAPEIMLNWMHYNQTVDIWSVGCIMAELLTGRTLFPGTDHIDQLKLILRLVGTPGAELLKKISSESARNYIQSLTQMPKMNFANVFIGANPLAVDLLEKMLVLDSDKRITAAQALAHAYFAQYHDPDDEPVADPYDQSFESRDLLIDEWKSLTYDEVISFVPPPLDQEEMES

O=c1[nH]cc(Nc2ccccc2)cc1-c1ccccc1Br [Compound 69, 3-(2-Bromophenyl)-5-(phenylamino)pyridin-2(1H)-one]
IC50 (p38α MAPK; p38 alpha, read-out: Mean IC50): 1460 nM | IC50 (p38α MAPK; read-out: IC50 toward p38α MAPK): 1500 ± 700 nM | remaining activity at 10 µM (TrkA): 88% | remaining activity at 10 µM (PKCa): 116% | remaining activity at 10 µM (TBK1): 89% | remaining activity at 10 µM (LKB1): 83% | remaining activity at 10 µM (Aurora B): 77% | remaining activity at 10 µM (PAK4): 89% | remaining activity at 10 µM (CK1δ): 98% | remaining activity at 10 µM (PDK1): 103% | remaining activity at 10 µM (CHK2): 101% | remaining activity at 10 µM (VEG-FR): 94% | remaining activity at 10 µM (BTK): 94% | remaining activity at 10 µM (CAMKKb): 95% | remaining activity at 10 µM (IGF-1R): 96% | remaining activity at 10 µM (TTK): 81% | remaining activity at 10 µM (CAMK1): 96% | remaining activity at 10 µM (MKK1): 112% | remaining activity at 10 µM (RIPK2): 90% | remaining activity at 10 µM (Lck): 108% | remaining activity at 10 µM (PLK1): 113% | remaining activity at 10 µM (S6K1): 87% | remaining activity at 10 µM (Src): 93% | remaining activity at 10 µM (IRAK4): 98% | remaining activity at 10 µM (PRK2): 90% | remaining activity at 10 µM (GSK3b): 105% | remaining activity at 10 µM (SYK): 79% | remaining activity at 10 µM (EF2K): 116% | remaining activity at 10 µM (PKD1): 92% | remaining activity at 10 µM (SGK1): 89% | remaining activity at 10 µM (MARK3): 102% | remaining activity at 10 µM (HER4): 98% | remaining activity at 10 µM (EPH-A2): 109%
